# Source: ChEMBL document CHEMBL1201861, “Genomics of Drug Sensitity in Cancer screening data, Wellcome Trust Sanger Institute”
# How the values were obtained:
# Assay in all cases: cells
# Assay type in all cases: functional, cell-based, Homo sapiens
# ES1 = details: Homo sapiens, ES1;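 also: growth inhibition of ES1 cells, read out with a cell viability assay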
# Description: SANGER: Inhibition of human ES1 cell growth in a cell viability assay.
# COLO-829 = details: Homo sapiens, COLO-829
# Description: SANGER: Inhibition of human COLO-829 cell growth in a cell viability assay.
# GAK = details: Homo sapiens, GAK;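 also: cell growth inhibition read out by a cell viability assay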
# Description: SANGER: Inhibition of human GAK cell growth in a cell viability assay.
# A388 = details: Homo sapiens, A388;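 also: growth inhibition of human A388 cells, read out with a cell viability assay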
# Description: SANGER: Inhibition of human A388 cell growth in a cell viability assay.
# SF-539 = details: Homo sapiens, SF-539;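 also: Read-out is a cell viability assay, with IC50 reflecting inhibition of cell growth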
# Description: SANGER: Inhibition of human SF539 cell growth in a cell viability assay.
# GT3TKB = details: Homo sapiens, GT3TKB;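 also: growth inhibition of the cell line, read out with a cell viability assay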
# Description: SANGER: Inhibition of human GT3TKB cell growth in a cell viability assay.
# NH-12 = details: Homo sapiens, NH-12;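 also: growth inhibition of NH-12 cells, read out with a cell viability assay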
# Description: SANGER: Inhibition of human NH-12 cell growth in a cell viability assay.
# COLO-800 = details: Homo sapiens, COLO-800;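 also: growth inhibition of COLO-800 cells, read out with a cell viability assay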
# Description: SANGER: Inhibition of human COLO-800 cell growth in a cell viability assay.
# HEL = details: Homo sapiens, HEL;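 also: growth inhibition of HEL cells, read out with a cell viability assay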
# Description: SANGER: Inhibition of human HEL cell growth in a cell viability assay.
# TE-8 = details: Homo sapiens, TE-8;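 also: growth inhibition of TE-8 cells, measured with a cell viability readout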
# Description: SANGER: Inhibition of human TE-8 cell growth in a cell viability assay.
# RH-1 = details: Homo sapiens, RH-1;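 also: growth inhibition of human RH-1 cells, read out with a cell viability assay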
# Description: SANGER: Inhibition of human RH-1 cell growth in a cell viability assay.
# NOS-1 = details: Homo sapiens, NOS-1;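 also: growth inhibition of the human NOS-1 cell line, read out with a cell viability assay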
# Description: SANGER: Inhibition of human NOS-1 cell growth in a cell viability assay.
# EW-16 = details: Homo sapiens, EW-16;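 also: growth inhibition of human EW-16 cells, read out as cell viability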
# Description: SANGER: Inhibition of human EW-16 cell growth in a cell viability assay.
# TE-10 = details: Homo sapiens, TE-10;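 also: growth inhibition of TE-10 cells, measured by a cell viability assay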
# Description: SANGER: Inhibition of human TE-10 cell growth in a cell viability assay.
# A498 = details: Homo sapiens, A498;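 also: growth inhibition of human A498 cells, read out with a cell viability assay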
# Description: SANGER: Inhibition of human A498 cell growth in a cell viability assay.
# LNCaP-Clone-FGC = details: Homo sapiens, LNCaP-Clone-FGC
# Description: SANGER: Inhibition of human LNCaP-Clone-FGC cell growth in a cell viability assay.
# LAN-6 = details: Homo sapiens, LAN-6;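 also: growth inhibition of LAN-6 cells, determined with a cell viability assay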
# Description: SANGER: Inhibition of human LAN-6 cell growth in a cell viability assay.
# PSN1 = details: Homo sapiens, PSN1;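 also: suppression of growth of human PSN1 cells, read out by a cell viability assay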
# Description: SANGER: Inhibition of human PSN1 cell growth in a cell viability assay.
# LB373-MEL-D = details: Homo sapiens, LB373-MEL-D;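 also: growth inhibition of the cell line, read out in a cell viability assay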
# Description: SANGER: Inhibition of human LB373-MEL-D cell growth in a cell viability assay.
# SW872 = details: Homo sapiens, SW872;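 also: growth inhibition of SW872 cells, read out by a viability assay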
# Description: SANGER: Inhibition of human SW872 cell growth in a cell viability assay.
# TE-5 = details: Homo sapiens, TE-5;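 also: inhibition of cell growth, read out by a cell viability assay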
# Description: SANGER: Inhibition of human TE-5 cell growth in a cell viability assay.
# NTERA-2-cl-D1 = details: Homo sapiens, NTERA-2-cl-D1;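 also: inhibition of cell growth, measured with a cell viability assay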
# Description: SANGER: Inhibition of human NTERA-S-cl-D1 cell growth in a cell viability assay.
# SK-LMS-1 = details: Homo sapiens, SK-LMS-1;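 also: growth inhibition of human SK-LMS-1 cells, read out with a cell viability assay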
# Description: SANGER: Inhibition of human SK-LMS-1 cell growth in a cell viability assay.
# LS-513 = details: Homo sapiens, LS-513
# Description: SANGER: Inhibition of human LS-513 cell growth in a cell viability assay.
# TGBC1TKB = details: Homo sapiens, TGBC1TKB;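 also: growth inhibition of TGBC1TKB cells, read out by a cell viability assay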
# Description: SANGER: Inhibition of human TGBC1TKB cell growth in a cell viability assay.
# JAR = details: Homo sapiens, JAR;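 also: growth inhibition of human JAR cells determined with a cell viability assay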
# Description: SANGER: Inhibition of human JAR cell growth in a cell viability assay.
# LB996-RCC = details: Homo sapiens, LB996-RCC
# Description: SANGER: Inhibition of human LB996-RCC cell growth in a cell viability assay.
# LC-2-ad = details: Homo sapiens, LC-2-ad;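 also: growth inhibition of human LC-2-ad cells, read out with a cell viability assay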
# Description: SANGER: Inhibition of human LC-2-ad cell growth in a cell viability assay.
# EC-GI-10 = details: Homo sapiens, EC-GI-10
# Description: SANGER: Inhibition of human EC-GI-10 cell growth in a cell viability assay.
# SF-126 = details: Homo sapiens, SF-126;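 also: growth inhibition of human SF126 cells, read out with a cell viability assay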
# Description: SANGER: Inhibition of human SF126 cell growth in a cell viability assay.
# NCI-H226 = details: Homo sapiens, NCI-H226;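 also: cell viability read-out used to gauge growth inhibition of the cells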
# Description: SANGER: Inhibition of human NCI-H226 cell growth in a cell viability assay.
# LU-134-A = details: Homo sapiens, LU-134-A
# Description: SANGER: Inhibition of human LU-134-A cell growth in a cell viability assay.
# ATN-1 = details: Homo sapiens, ATN-1;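 also: growth inhibition of human ATN-1 cells, read out with a cell viability assay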
# Description: SANGER: Inhibition of human ATN-1 cell growth in a cell viability assay.
# ALL-PO = details: Homo sapiens, ALL-PO;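 also: growth inhibition of ALL-PO cells, read out by a cell viability assay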
# Description: SANGER: Inhibition of human ALL-PO cell growth in a cell viability assay.
# KE-37 = details: Homo sapiens, KE-37;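 also: growth inhibition of KE-37 cells, read out with a cell viability assay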
# Description: SANGER: Inhibition of human KE-37 cell growth in a cell viability assay.
# K562 = details: Homo sapiens, K562
# Description: SANGER: Inhibition of human K-562 cell growth in a cell viability assay.
# COLO-320-HSR = details: Homo sapiens, COLO-320-HSR;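 also: growth inhibition of COLO-320-HSR cells, determined with a cell viability assay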
# Description: SANGER: Inhibition of human COLO-320-HSR cell growth in a cell viability assay.
# CTB-1 = details: Homo sapiens, CTB-1
# Description: SANGER: Inhibition of human CTB-1 cell growth in a cell viability assay.
# RPMI-8866 = details: Homo sapiens, RPMI-8866
# Description: SANGER: Inhibition of human RPMI-8866 cell growth in a cell viability assay.
# HL-60 = details: Homo sapiens, HL-60;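 also: growth inhibition of human HL-60 cells, read out with a cell viability assay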
# Description: SANGER: Inhibition of human HL-60 cell growth in a cell viability assay.
# NCI-H720 = details: Homo sapiens, NCI-H720;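 also: growth inhibition of human NCI-H720 cells determined by a cell viability assay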
# Description: SANGER: Inhibition of human NCI-H720 cell growth in a cell viability assay.
# KU812 cell line = details: Homo sapiens, KU812;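 also: growth inhibition of KU812 cells, read out with a cell viability assay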
# Description: SANGER: Inhibition of human KU812 cell growth in a cell viability assay.
# NCI-H209 = details: Homo sapiens, NCI-H209;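 also: growth inhibition of human NCI-H209 cells, measured by a cell viability assay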
# Description: SANGER: Inhibition of human NCI-H209 cell growth in a cell viability assay.
# P30-OHK = details: Homo sapiens, P30-OHK;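 also: growth inhibition of the P30-OHK cell line, read out with a cell viability assay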
# Description: SANGER: Inhibition of human P30-OHK cell growth in a cell viability assay.
# CCRF-CEM = details: Homo sapiens, CCRF-CEM;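 also: inhibition of CCRF-CEM cell growth, measured by a cell viability assay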
# Description: SANGER: Inhibition of human CCRF-CEM cell growth in a cell viability assay.
# KARPAS-45 = details: Homo sapiens, KARPAS-45;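 also: inhibition of cell line growth, read out through a viability assay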
# Description: SANGER: Inhibition of human KARPAS-45 cell growth in a cell viability assay.
# QIMR-WIL = details: Homo sapiens, QIMR-WIL;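 also: growth inhibition of QIMR-WIL cells, read out with a cell viability assay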
# Description: SANGER: Inhibition of human QIMR-WIL cell growth in a cell viability assay.
# DEL = details: Homo sapiens, DEL;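 also: growth inhibition of the human DEL cell line, read out with a cell viability assay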
# Description: SANGER: Inhibition of human DEL cell growth in a cell viability assay.
# DMS-79 = details: Homo sapiens, DMS-79;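 also: growth inhibition measured with a cell viability assay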
# Description: SANGER: Inhibition of human DMS-79 cell growth in a cell viability assay.
smiles,measurement,setting,value
CC(C)c1ccccc1Cc1cc(C(=O)Nc2ccc(S(=O)(=O)c3ccccc3C(C)(C)C)cc2)c(O)c(O)c1O,IC50,ES1,0.13 µM
same,IC50,COLO-829,0.701 µM
same,IC50,GAK,2.03 µM
same,IC50,A388,0.167 µM
same,IC50,SF-539,0.47 µM
same,IC50,GT3TKB,0.301 µM
same,IC50,NH-12,0.172 µM
same,IC50,COLO-800,0.183 µM
same,IC50,HEL,0.522 µM
same,IC50,TE-8,0.129 µM
same,IC50,RH-1,0.158 µM
same,IC50,NOS-1,0.235 µM
same,IC50,EW-16,0.185 µM
same,IC50,TE-10,1.23 µM
same,IC50,A498,1.49 µM
same,IC50,LNCaP-Clone-FGC,0.535 µM
same,IC50,LAN-6,0.16 µM
same,IC50,PSN1,0.167 µM
same,IC50,LB373-MEL-D,0.431 µM
same,IC50,SW872,0.0589 µM
same,IC50,TE-5,0.884 µM
same,IC50,NTERA-2-cl-D1,0.167 µM
same,IC50,SK-LMS-1,0.272 µM
same,IC50,LS-513,0.607 µM
same,IC50,TGBC1TKB,1.13 µM
same,IC50,JAR,0.0026 µM
same,IC50,LB996-RCC,0.25 µM
same,IC50,LC-2-ad,0.424 µM
same,IC50,EC-GI-10,0.47 µM
same,IC50,SF-126,0.0571 µM
same,IC50,NCI-H226,2.46 µM
CC(C)CCN1c2nc(Nc3cc(F)c(O)c(F)c3)ncc2N(C)C(=O)C1C (stereo not drawn),IC50,LU-134-A,3.95 µM
same,IC50,ATN-1,4.42 µM
same,IC50,ALL-PO,> 5 µM
same,IC50,KE-37,1.59 µM
same,IC50,K562,> 5 µM
same,IC50,COLO-320-HSR,> 5 µM
same,IC50,ES1,> 5 µM
same,IC50,CTB-1,1.45 µM
same,IC50,COLO-829,3.67 µM
same,IC50,GAK,> 5 µM
same,IC50,A388,> 5 µM
same,IC50,SF-539,> 5 µM
same,IC50,RPMI-8866,> 5 µM
same,IC50,GT3TKB,3.76 µM
same,IC50,NH-12,3.11 µM
same,IC50,COLO-800,2.54 µM
same,IC50,HEL,2.7 µM
same,IC50,HL-60,0.884 µM
same,IC50,TE-8,3.19 µM
same,IC50,RH-1,> 5 µM
same,IC50,NOS-1,> 5 µM
same,IC50,EW-16,> 5 µM
same,IC50,TE-10,> 5 µM
same,IC50,A498,> 5 µM
same,IC50,LNCaP-Clone-FGC,3.7 µM
same,IC50,LAN-6,> 5 µM
same,IC50,PSN1,3.06 µM
same,IC50,NCI-H720,0.172 µM
same,IC50,KU812 cell line,0.626 µM
same,IC50,LB373-MEL-D,> 5 µM
same,IC50,SW872,> 5 µM
same,IC50,TE-5,> 5 µM
same,IC50,NCI-H209,0.768 µM
same,IC50,NTERA-2-cl-D1,> 5 µM
same,IC50,P30-OHK,> 5 µM
same,IC50,CCRF-CEM,> 5 µM
same,IC50,SK-LMS-1,> 5 µM
same,IC50,LS-513,> 5 µM
same,IC50,TGBC1TKB,> 5 µM
same,IC50,KARPAS-45,0.165 µM
same,IC50,JAR,> 5 µM
same,IC50,QIMR-WIL,2.08 µM
same,IC50,LB996-RCC,> 5 µM
same,IC50,LC-2-ad,> 5 µM
same,IC50,SF-126,> 5 µM
same,IC50,NCI-H226,> 5 µM
same,IC50,DEL,> 5 µM
C=C(c1ccc(C(=O)O)cc1)c1cc2c(cc1C)C(C)(C)CCC2(C)C [BEXAROTENE],IC50,LU-134-A,> 8 µM
same,IC50,ATN-1,3.34 µM
same,IC50,ALL-PO,5.86 µM
same,IC50,KE-37,> 8 µM
same,IC50,K562,> 8 µM
same,IC50,COLO-320-HSR,> 8 µM
same,IC50,DMS-79,> 8 µM
same,IC50,ES1,> 8 µM
same,IC50,CTB-1,> 8 µM
same,IC50,COLO-829,> 8 µM
same,IC50,GAK,> 8 µM
same,IC50,A388,> 8 µM
same,IC50,SF-539,> 8 µM
same,IC50,RPMI-8866,> 8 µM
same,IC50,GT3TKB,> 8 µM
same,IC50,NH-12,> 8 µM
same,IC50,COLO-800,> 8 µM
same,IC50,HEL,> 8 µM
same,IC50,HL-60,> 8 µM
same,IC50,TE-8,> 8 µM
same,IC50,RH-1,> 8 µM
same,IC50,NOS-1,6.92 µM
same,IC50,EW-16,> 8 µM
same,IC50,TE-10,> 8 µM
same,IC50,A498,> 8 µM
same,IC50,LNCaP-Clone-FGC,> 8 µM
same,IC50,LAN-6,> 8 µM
same,IC50,PSN1,4 µM
same,IC50,NCI-H720,> 8 µM
same,IC50,KU812 cell line,> 8 µM
same,IC50,LB373-MEL-D,> 8 µM
same,IC50,SW872,> 8 µM
same,IC50,TE-5,> 8 µM
same,IC50,NCI-H209,> 8 µM
same,IC50,NTERA-2-cl-D1,> 8 µM
same,IC50,P30-OHK,> 8 µM
same,IC50,CCRF-CEM,> 8 µM
same,IC50,SK-LMS-1,7.62 µM
same,IC50,LS-513,> 8 µM
same,IC50,TGBC1TKB,> 8 µM
same,IC50,JAR,> 8 µM
same,IC50,QIMR-WIL,> 8 µM
same,IC50,LB996-RCC,> 8 µM
same,IC50,LC-2-ad,> 8 µM
same,IC50,EC-GI-10,> 8 µM
same,IC50,SF-126,> 8 µM
same,IC50,NCI-H226,> 8 µM
same,IC50,DEL,> 8 µM
C#Cc1cccc(Nc2ncnc3cc(OCCOC)c(OCCOC)cc23)c1 [ERLOTINIB],IC50,LU-134-A,> 2 µM
same,IC50,ATN-1,> 2 µM
same,IC50,ALL-PO,> 2 µM
same,IC50,KE-37,> 2 µM
same,IC50,K562,> 2 µM
same,IC50,COLO-320-HSR,> 2 µM
same,IC50,DMS-79,> 2 µM
same,IC50,ES1,> 2 µM
same,IC50,CTB-1,> 2 µM
same,IC50,COLO-829,> 2 µM
same,IC50,A388,1.09 µM
same,IC50,SF-539,> 2 µM
same,IC50,RPMI-8866,> 2 µM
same,IC50,GT3TKB,> 2 µM
same,IC50,NH-12,> 2 µM
same,IC50,COLO-800,> 2 µM
same,IC50,HEL,> 2 µM
same,IC50,HL-60,> 2 µM
same,IC50,TE-8,> 2 µM
same,IC50,RH-1,> 2 µM
same,IC50,NOS-1,> 2 µM
same,IC50,EW-16,> 2 µM
same,IC50,TE-10,> 2 µM
same,IC50,LNCaP-Clone-FGC,> 2 µM
same,IC50,LAN-6,> 2 µM
same,IC50,PSN1,> 2 µM
same,IC50,NCI-H720,> 2 µM
same,IC50,KU812 cell line,> 2 µM
same,IC50,LB373-MEL-D,> 2 µM
same,IC50,SW872,> 2 µM
same,IC50,TE-5,> 2 µM
same,IC50,NCI-H209,> 2 µM
same,IC50,NTERA-2-cl-D1,> 2 µM
same,IC50,P30-OHK,> 2 µM
same,IC50,CCRF-CEM,> 2 µM
same,IC50,SK-LMS-1,> 2 µM
same,IC50,LS-513,> 2 µM
same,IC50,TGBC1TKB,> 2 µM
same,IC50,QIMR-WIL,> 2 µM
same,IC50,LB996-RCC,0.402 µM
same,IC50,LC-2-ad,> 2 µM
same,IC50,EC-GI-10,> 2 µM
same,IC50,SF-126,> 2 µM
same,IC50,NCI-H226,> 2 µM
same,IC50,DEL,> 2 µM
CC[C@H](CO)Nc1nc(NCc2ccccc2)c2ncn(C(C)C)c2n1 [SELICICLIB],IC50,LU-134-A,> 16 µM
same,IC50,ATN-1,> 16 µM
same,IC50,ALL-PO,> 16 µM
same,IC50,KE-37,> 16 µM
same,IC50,K562,> 16 µM
same,IC50,COLO-320-HSR,> 16 µM
same,IC50,DMS-79,> 16 µM
same,IC50,ES1,> 16 µM
same,IC50,CTB-1,> 16 µM
same,IC50,COLO-829,> 16 µM
same,IC50,A388,> 16 µM
same,IC50,SF-539,> 16 µM
same,IC50,RPMI-8866,> 16 µM
same,IC50,GT3TKB,> 16 µM
same,IC50,NH-12,> 16 µM
same,IC50,COLO-800,> 16 µM
same,IC50,HEL,> 16 µM
same,IC50,HL-60,> 16 µM
same,IC50,TE-8,> 16 µM
same,IC50,RH-1,> 16 µM
same,IC50,NOS-1,> 16 µM
same,IC50,EW-16,> 16 µM
same,IC50,TE-10,> 16 µM
same,IC50,LNCaP-Clone-FGC,> 16 µM
same,IC50,LAN-6,> 16 µM
same,IC50,PSN1,> 16 µM
same,IC50,NCI-H720,> 16 µM
same,IC50,KU812 cell line,> 16 µM
same,IC50,LB373-MEL-D,> 16 µM
same,IC50,SW872,> 16 µM
same,IC50,TE-5,> 16 µM
same,IC50,NCI-H209,> 16 µM
same,IC50,NTERA-2-cl-D1,> 16 µM
same,IC50,P30-OHK,> 16 µM
same,IC50,CCRF-CEM,> 16 µM
same,IC50,SK-LMS-1,> 16 µM
same,IC50,LS-513,> 16 µM
same,IC50,TGBC1TKB,> 16 µM
same,IC50,KARPAS-45,> 16 µM
same,IC50,JAR,> 16 µM
same,IC50,QIMR-WIL,> 16 µM
same,IC50,LB996-RCC,> 16 µM
same,IC50,LC-2-ad,> 16 µM
same,IC50,EC-GI-10,> 16 µM
same,IC50,SF-126,> 16 µM
same,IC50,NCI-H226,> 16 µM
same,IC50,DEL,> 16 µM
